Columns and labels:
arrowleaf sida = test: Test C postemergence arrowleaf sida; assay type: in vivo, Sida rhombifolia; details: 0 to 100 scale, 0 no effect, 100 complete control
Procedure: (§1) Compounds evaluated in this test were formulated in a non-phytotoxic solvent mixture which included a surfactant and applied to plants that were grown for various periods of time before treatment (postemergence application). A mixture of sandy loam soil and greenhouse potting mix in a 60:40 ratio was used for the postemergence test.
(§2) Plantings of these crops and weed species were adjusted to produce plants of appropriate size for the postemergence test. All plant species were grown using normal greenhouse practices. Crop and weed species include arrowleaf sida (Sida rhombifolia), barnyardgrass (Echinochloa crus-galli), cocklebur (Xanthium strumarium), common ragweed (Ambrosia elatior), corn (Zea mays), cotton (Gossypium hirsutum), eastern black nightshade (Solanum ptycanthum), fall panicum (Panicum dichotomiflorum), field bindweed (Convolvulus arvensis), giant foxtail (Setaria faberii), hairy beggarticks (Bidens pilosa), ivyleaf morningglory (Ipomoea hederacea), johnsongrass (Sorghum halepense), ladysthumb smartweed (Polygonum persicaria), lambsquarters (Chenopodium album), large crabgrass (Digitaria sanguinalis), purple nutsedge (Cyperus rotundus), redroot pigweed (Amaranthus retroflexus), soybean (Glycine max), surinam grass (Brachiaria decumbens), velvetleaf (Abutilon theophrasti) and wild poinsettia (Euphorbia heterophylla).
(§3) Treated plants and untreated controls were maintained in a greenhouse for approximately 14, to 21 days, after which all treated plants were compared to untreated controls and visually evaluated. Plant response ratings, summarized in Table C, were based upon a 0 to 100 scale where 0 was no effect and 100 was complete control. A dash response (−) means no test result.

cocklebur = test: Test C postemergence cocklebur; assay type: in vivo, Xanthium strumarium; details: 0 to 100 scale, 0 no effect, 100 complete control
How it was run: (§4)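 Greenhouse postemergence test: compound applied in solvent/surfactant formulation to established plants; visual scoring 0–100 against untreated controls after roughly two to three weeks (14–21 days).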

common ragweed = test: Test C postemergence common ragweed; assay type: in vivo, Ambrosia elatior; details: 0 to 100 scale, 0 no effect, 100 complete control
How it was run: as §4

corn = test: Test C postemergence corn; assay type: in vivo, Zea mays; details: 0 to 100 scale, 0 no effect, 100 complete control
How it was run: as §4

cotton = test: Test C postemergence cotton; assay type: in vivo, Gossypium hirsutum; details: 0 to 100 scale, 0 no effect, 100 complete control
Procedure: as §1, §2, §3

eastern black nightshade = test: Test C postemergence eastern black nightshade; assay type: in vivo, Solanum ptycanthum; details: 0 to 100 scale, 0 no effect, 100 complete control
How it was run: as §4

fall panicum = test: Test C postemergence fall panicum; assay type: in vivo, Panicum dichotomiflorum; details: 0 to 100 scale, 0 no effect, 100 complete control
Procedure: as §1, §2, §3

giant foxtail = test: Test C postemergence giant foxtail; assay type: in vivo, Setaria faberii; details: 0 to 100 scale, 0 no effect, 100 complete control
Procedure: as §1, §2, §3

hairy beggarticks = test: Test C postemergence hairy beggarticks; assay type: in vivo, Bidens pilosa; details: 0 to 100 scale, 0 no effect, 100 complete control
Procedure: as §1, §2, §3

ivyleaf morningglory = test: Test C postemergence ivyleaf morningglory; assay type: in vivo, Ipomoea hederacea; details: 0 to 100 scale, 0 no effect, 100 complete control
Procedure: as §1, §2, §3

johnsongrass = test: Test C postemergence johnsongrass; assay type: in vivo, Sorghum halepense; details: 0 to 100 scale, 0 no effect, 100 complete control
Procedure: as §1, §2, §3

lambsquarters = test: Test C postemergence lambsquarters; assay type: in vivo, Chenopodium album; details: 0 to 100 scale, 0 no effect, 100 complete control
Procedure: as §1, §2, §3

large crabgrass = test: Test C postemergence large crabgrass; assay type: in vivo, Digitaria sanguinalis; details: 0 to 100 scale, 0 no effect, 100 complete control
Procedure: as §1, §2, §3

purple nutsedge = test: Test C postemergence purple nutsedge; assay type: in vivo, Cyperus rotundus; details: 0 to 100 scale, 0 no effect, 100 complete control
Procedure: as §1, §2, §3

redroot pigweed = test: Test C postemergence redroot pigweed; assay type: in vivo, Amaranthus retroflexus; details: 0 to 100 scale, 0 no effect, 100 complete control
How it was run: as §4

soybean = test: Test C postemergence soybean; assay type: in vivo, Glycine max; details: 0 to 100 scale, 0 no effect, 100 complete control
Procedure: as §1, §2, §3

surinam grass = test: Test C postemergence surinam grass; assay type: in vivo, Brachiaria decumbens; details: 0 to 100 scale, 0 no effect, 100 complete control
How it was run: as §4

velvetleaf = test: Test C postemergence velvetleaf; assay type: in vivo, Abutilon theophrasti; details: 0 to 100 scale, 0 no effect, 100 complete control
How it was run: as §4

wild poinsettia = test: Test C postemergence wild poinsettia; assay type: in vivo, Euphorbia heterophylla; details: 0 to 100 scale, 0 no effect, 100 complete control
Procedure: as §1, §2, §3

sourgrass = test: Test D sourgrass; assay type: in vivo, Trichachne insularis; details: Rate 64 g/ha, Preemergence; 0 to 100 scale, 0 no injury, 100 complete control
How it was run: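 Visual injury ratings, 0 = no injury to 100 = complete control, taken 14 to 21 days after treatment. Test chemicals were in a surfactant-containing non-phytotoxic solvent; preemergence treatments went onto the sandy loam surface of seeded greenhouse pots within one day of sowing.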

Cc1ccc(N(C(=O)n2oc(=O)n(C(C)C)c2=O)C(C)C)cc1 [Compound 132]
0: Plant response rating Arrowleaf sida (arrowleaf sida; Rate 140 g/ha) | Plant response rating Arrowleaf sida (arrowleaf sida; Rate 280 g/ha) | Plant response rating, Cocklebur (cocklebur; Rate 140 g/ha) | Plant response rating, Cocklebur (cocklebur; Rate 280 g/ha) | Plant response rating, Cocklebur (cocklebur; Rate 560 g/ha) | Plant response rating, Cocklebur (cocklebur; Rate 1120 g/ha) | Plant response rating Common ragweed (common ragweed; Rate 140 g/ha) | Plant response rating Common ragweed (common ragweed; Rate 280 g/ha) | Plant response rating Common ragweed (common ragweed; Rate 560 g/ha) | Plant response rating Common ragweed (common ragweed; Rate 1120 g/ha) | Plant response rating, Corn (corn; Rate 140 g/ha) | Plant response rating, Corn (corn; Rate 280 g/ha) | Plant response rating, Corn (corn; Rate 560 g/ha) | Plant response rating E. blacknightsh (eastern black nightshade; Rate 140 g/ha) | Plant response rating E. blacknightsh (eastern black nightshade; Rate 280 g/ha) | Plant response rating E. blacknightsh (eastern black nightshade; Rate 560 g/ha) | Plant response rating E. blacknightsh (eastern black nightshade; Rate 1120 g/ha) | Plant response rating Fall panicum (fall panicum; Rate 140 g/ha) | Plant response rating, Giant foxtail (giant foxtail; Rate 140 g/ha) | Plant response rating, Giant foxtail (giant foxtail; Rate 280 g/ha) | Plant response rating, Giant foxtail (giant foxtail; Rate 560 g/ha) | Plant response rating, Giant foxtail (giant foxtail; Rate 1120 g/ha) | Plant response rating H. beggarticks (hairy beggarticks; Rate 140 g/ha) | Plant response rating H. beggarticks (hairy beggarticks; Rate 280 g/ha) | Plant response rating I. morningglory (ivyleaf morningglory; Rate 140 g/ha) | Plant response rating I. morningglory (ivyleaf morningglory; Rate 280 g/ha) | Plant response rating I. morningglory (ivyleaf morningglory; Rate 560 g/ha) | Plant response rating I. morningglory (ivyleaf morningglory; Rate 1120 g/ha) | Plant response rating Johnsongrass (johnsongrass; Rate 140 g/ha) | Plant response rating Johnsongrass (johnsongrass; Rate 280 g/ha) | Plant response rating Johnsongrass (johnsongrass; Rate 560 g/ha) | Plant response rating Lambsquarters (lambsquarters; Rate 140 g/ha) | Plant response rating Lambsquarters (lambsquarters; Rate 280 g/ha) | Plant response rating Lambsquarters (lambsquarters; Rate 560 g/ha) | Plant response rating Lambsquarters (lambsquarters; Rate 1120 g/ha) | Plant response rating Large crabgrass (large crabgrass; Rate 140 g/ha) | Plant response rating, Purple nutsedge (purple nutsedge; Rate 140 g/ha) | Plant response rating, Purple nutsedge (purple nutsedge; Rate 280 g/ha) | Plant response rating, Purple nutsedge (purple nutsedge; Rate 560 g/ha) | Plant response rating, Purple nutsedge (purple nutsedge; Rate 1120 g/ha) | Plant response rating, Redroot pigweed (redroot pigweed; Rate 140 g/ha) | Plant response rating Surinam grass (surinam grass; Rate 140 g/ha) | Plant response rating Surinam grass (surinam grass; Rate 280 g/ha) | Plant response rating Surinam grass (surinam grass; Rate 560 g/ha) | Plant response rating, Velvetleaf (velvetleaf; Rate 140 g/ha) | Plant response rating, Velvetleaf (velvetleaf; Rate 280 g/ha) | Plant response rating, Velvetleaf (velvetleaf; Rate 560 g/ha) | Plant response rating, Velvetleaf (velvetleaf; Rate 1120 g/ha) | Plant response rating Wild poinsettia (wild poinsettia; Rate 140 g/ha) | Plant response rating Wild poinsettia (wild poinsettia; Rate 280 g/ha) | Plant response rating Wild poinsettia (wild poinsettia; Rate 560 g/ha) | Plant response rating Wild poinsettia (wild poinsettia; Rate 1120 g/ha)
30: Plant response rating Fall panicum (fall panicum; Rate 280 g/ha) | Plant response rating, Redroot pigweed (redroot pigweed; Rate 1120 g/ha) | Plant response rating, Soybean (soybean; Rate 560 g/ha) | Plant response rating Surinam grass (surinam grass; Rate 1120 g/ha)
80: Plant response rating Arrowleaf sida (arrowleaf sida; Rate 1120 g/ha) | Plant response rating Large crabgrass (large crabgrass; Rate 1120 g/ha)
100: Plant response rating, Sourgrass (sourgrass)
5: Plant response rating Cotton (cotton; Rate 140 g/ha) | Plant response rating, Soybean (soybean; Rate 140 g/ha)
60: Plant response rating Johnsongrass (johnsongrass; Rate 1120 g/ha)
10: Plant response rating Arrowleaf sida (arrowleaf sida; Rate 560 g/ha) | Plant response rating, Corn (corn; Rate 1120 g/ha) | Plant response rating Cotton (cotton; Rate 280 g/ha) | Plant response rating Large crabgrass (large crabgrass; Rate 280 g/ha) | Plant response rating, Redroot pigweed (redroot pigweed; Rate 280 g/ha)
40: Plant response rating Cotton (cotton; Rate 1120 g/ha) | Plant response rating Large crabgrass (large crabgrass; Rate 560 g/ha) | Plant response rating, Soybean (soybean; Rate 1120 g/ha)
20: Plant response rating Cotton (cotton; Rate 560 g/ha) | Plant response rating, Soybean (soybean; Rate 280 g/ha)
50: Plant response rating Fall panicum (fall panicum; Rate 560 g/ha) | Plant response rating Fall panicum (fall panicum; Rate 1120 g/ha)

From patent US6737383B1, “Herbicidal oxadiazolidines” (priority 1999, dated 2004)
